From ChEMBL document CHEMBL1201862, “PubChem BioAssay data set” (2004)
Active and inactive are the calls of the source.

What was measured:
[1] = biological target: Glyceraldehyde-3-phosphate dehydrogenase (Homo sapiens, UniProt P04406)
[2] = biological target: Alkaline phosphatase, placental type (Homo sapiens, UniProt P05187); assay: human placental alkaline phosphatase inhibition – biochemical, luminescence, confirmation (AID 1512); assay type: functional
[3] = biological target: T1, Alkaline phosphatase, tissue-nonspecific isozyme (Homo sapiens, UniProt P05186); assay: potency against alkaline phosphatase TNAP – biochemical, luminescent, dose response, SAR follow-up (AID 1056)
T1 sequence (P05186 whole entry): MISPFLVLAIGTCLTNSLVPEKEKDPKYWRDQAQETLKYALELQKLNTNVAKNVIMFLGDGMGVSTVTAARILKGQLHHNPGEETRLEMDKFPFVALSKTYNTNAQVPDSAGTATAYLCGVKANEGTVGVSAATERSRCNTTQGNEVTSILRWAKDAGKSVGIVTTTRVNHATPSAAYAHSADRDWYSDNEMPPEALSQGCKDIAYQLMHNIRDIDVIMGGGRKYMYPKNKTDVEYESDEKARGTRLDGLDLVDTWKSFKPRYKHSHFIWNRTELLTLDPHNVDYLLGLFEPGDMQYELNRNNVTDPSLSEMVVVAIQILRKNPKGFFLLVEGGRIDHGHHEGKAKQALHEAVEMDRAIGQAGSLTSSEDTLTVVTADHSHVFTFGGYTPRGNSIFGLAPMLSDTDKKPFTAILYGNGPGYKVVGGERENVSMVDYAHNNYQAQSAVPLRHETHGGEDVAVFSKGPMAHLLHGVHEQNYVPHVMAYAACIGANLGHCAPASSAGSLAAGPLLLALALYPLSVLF

[4] = tested on: INS1; assay: INS-1E survival protection against cytokine death – cell-based, luminescence, retest, dose response (AID 449756); assay type: functional; conditions: Rattus norvegicus;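 note: cell death triggered by IL-1 beta plus TNF-alpha plus IFN-gamma mixture; protective hits raise ATP signal compared with cytokine alone wells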
[5] = tested on: Streptococcus sp. 'group A'; assay: Streptococcus pyogenes SK(-)GAS viability under kanamycin – luminescence, BacTiterGlo, confirmation, counter-screen for streptokinase expression inhibitor project, dose response (AID 1900); assay type: functional, organism-based
[6] = Intein inhibitors as potential Tuberculosis drugs, a cytotoxicity screen. [Related pubchem assays (depositor defined):AID2221, AID2223, AID434968, AID435010, AID449749, AID449750, AID489010]; assay type: functional
[7] = Trypanosoma cruzi growth suppression in host cells – NIH3T3 host cells, beta-gal luminescence, confirmation (AID 2044); assay type: functional, cell-based;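 note: intracellular parasites grown in NIH/3T3 mouse fibroblasts as host cells; luminescent beta-galactosidase reporter signal from transgenic T. cruzi replicating inside host cells; inhibitors lower the luminescence signal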
[8] = tested on: Streptococcus; assay: GAS UMAA2166 growth inhibition – luminescence, BacTiterGlo, counter-screen for streptokinase expression inhibitor project, dose response (AID 1915); assay type: functional, organism-based;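 note: potency for reduction of bacterial viability or growth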
[9] = NIH3T3 cell viability loss – ATP luminescence, mouse fibroblasts, counter-screen, dose response (AID 2010); assay type: functional, cell-based;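 note: cells exposed to compound for about 90 hours before reading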
[10] = DRD fibroblast viability loss – cell-based, non-viral oncogenic, luminescence, dose response (AID 1934); assay type: functional; conditions: Homo sapiens
[11] = biological target: T2, Protein skinhead-1 (Caenorhabditis elegans, UniProt P34707); assay type: functional
T2 sequence (P34707 whole entry): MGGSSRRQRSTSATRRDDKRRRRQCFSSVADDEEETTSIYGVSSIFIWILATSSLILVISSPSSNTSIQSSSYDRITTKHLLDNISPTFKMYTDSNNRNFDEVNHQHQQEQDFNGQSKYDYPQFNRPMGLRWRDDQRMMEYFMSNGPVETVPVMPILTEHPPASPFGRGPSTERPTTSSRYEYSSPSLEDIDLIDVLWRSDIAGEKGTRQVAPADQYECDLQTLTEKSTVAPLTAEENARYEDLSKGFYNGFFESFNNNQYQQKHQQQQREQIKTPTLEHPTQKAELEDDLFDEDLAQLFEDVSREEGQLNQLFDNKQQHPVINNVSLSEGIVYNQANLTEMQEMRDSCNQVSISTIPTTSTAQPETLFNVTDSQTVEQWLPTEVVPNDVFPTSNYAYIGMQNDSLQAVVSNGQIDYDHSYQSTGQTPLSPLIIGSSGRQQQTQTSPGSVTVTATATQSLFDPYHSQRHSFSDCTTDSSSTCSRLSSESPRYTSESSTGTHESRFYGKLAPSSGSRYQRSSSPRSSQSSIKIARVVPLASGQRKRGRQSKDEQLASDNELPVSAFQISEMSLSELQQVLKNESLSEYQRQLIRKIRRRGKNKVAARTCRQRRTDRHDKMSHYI

[12] = HEK-293T viability loss after treatment – luminescence, T-cell screen hits, cytotoxicity control for TCR NF-kB inhibitor project, dose response (AID 489026); assay type: functional, cell-based;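 note: cells exposed to compound about 14 hours before the viability readout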
[13] = tested on: BJ; assay: BJ-TERT-LT-ST fibroblast viability loss – cell-based, RAS-independent, luminescence, dose response (AID 1935); assay type: functional; conditions: Homo sapiens;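 note: BJ fibroblasts immortalized with TERT plus LT and ST oncogenes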
[14] = tested on: BJ; assay: BJ-TERT fibroblast viability loss – cell-based, RAS-independent, luminescence, dose response (AID 1933); assay type: functional; conditions: Homo sapiens
[15] = tested on: BJ; assay: cells; assay type: functional, cell-based; conditions: Homo sapiens
[16] = biological target: T3, Protein RecA (Mycobacterium tuberculosis, UniProt P9WHJ3); assay: Fluorescence Cell-Free Homogeneous Dose Retest to Identify Inhibitors of RecA-Intein Splicing Activity. [Related pubchem assays (depositor defined):AID2097, AID2223, AID489010, AID492950]; assay type: functional
T3 sequence (P9WHJ3 whole entry): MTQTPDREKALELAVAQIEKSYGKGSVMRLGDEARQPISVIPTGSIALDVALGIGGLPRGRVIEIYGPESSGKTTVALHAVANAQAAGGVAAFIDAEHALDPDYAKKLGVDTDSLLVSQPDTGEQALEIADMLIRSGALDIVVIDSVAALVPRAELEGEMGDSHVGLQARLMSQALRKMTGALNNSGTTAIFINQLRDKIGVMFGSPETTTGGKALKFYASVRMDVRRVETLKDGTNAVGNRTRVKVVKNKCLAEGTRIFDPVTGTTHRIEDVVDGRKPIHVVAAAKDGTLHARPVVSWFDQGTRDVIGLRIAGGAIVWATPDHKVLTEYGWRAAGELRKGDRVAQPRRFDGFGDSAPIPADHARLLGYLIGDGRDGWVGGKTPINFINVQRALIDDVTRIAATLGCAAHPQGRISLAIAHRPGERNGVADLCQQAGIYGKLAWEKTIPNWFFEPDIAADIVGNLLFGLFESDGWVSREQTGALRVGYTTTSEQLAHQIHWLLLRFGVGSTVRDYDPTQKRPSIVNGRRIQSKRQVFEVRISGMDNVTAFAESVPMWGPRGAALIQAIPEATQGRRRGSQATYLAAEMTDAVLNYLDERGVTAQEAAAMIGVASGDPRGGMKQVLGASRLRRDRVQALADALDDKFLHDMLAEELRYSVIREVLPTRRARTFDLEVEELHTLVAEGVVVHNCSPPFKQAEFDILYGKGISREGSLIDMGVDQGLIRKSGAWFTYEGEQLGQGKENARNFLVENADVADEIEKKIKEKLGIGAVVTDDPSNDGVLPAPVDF

[17] = biological target: T4, Replicative DNA helicase DnaB (Mycobacterium tuberculosis, UniProt P9WMR3); assay: DnaB intein splicing inhibitors, dose response, biochemical, cell-free fluorescence (AID 449749); assay type: functional
T4 sequence (P9WMR3 whole entry): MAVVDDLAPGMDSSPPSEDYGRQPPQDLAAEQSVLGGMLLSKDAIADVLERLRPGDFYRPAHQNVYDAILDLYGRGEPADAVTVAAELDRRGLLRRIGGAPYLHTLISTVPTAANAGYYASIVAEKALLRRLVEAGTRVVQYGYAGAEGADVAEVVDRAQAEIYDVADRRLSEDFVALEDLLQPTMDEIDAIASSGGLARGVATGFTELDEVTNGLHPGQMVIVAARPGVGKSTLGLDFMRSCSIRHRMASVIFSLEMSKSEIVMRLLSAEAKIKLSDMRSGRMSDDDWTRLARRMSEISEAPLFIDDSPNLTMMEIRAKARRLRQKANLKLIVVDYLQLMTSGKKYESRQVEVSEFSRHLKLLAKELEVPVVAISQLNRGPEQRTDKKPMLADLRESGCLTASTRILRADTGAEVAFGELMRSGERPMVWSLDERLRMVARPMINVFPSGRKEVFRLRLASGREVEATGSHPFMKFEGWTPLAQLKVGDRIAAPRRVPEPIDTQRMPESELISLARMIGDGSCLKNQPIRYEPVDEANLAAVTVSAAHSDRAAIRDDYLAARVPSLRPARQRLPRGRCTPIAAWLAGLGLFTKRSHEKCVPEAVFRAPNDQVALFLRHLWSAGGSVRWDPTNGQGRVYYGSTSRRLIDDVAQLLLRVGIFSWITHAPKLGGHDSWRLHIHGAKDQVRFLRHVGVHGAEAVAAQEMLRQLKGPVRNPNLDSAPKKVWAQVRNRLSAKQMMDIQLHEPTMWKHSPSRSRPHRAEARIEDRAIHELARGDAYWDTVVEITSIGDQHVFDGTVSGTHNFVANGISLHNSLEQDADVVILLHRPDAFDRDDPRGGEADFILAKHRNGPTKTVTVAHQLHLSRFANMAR

[18] = biological target: Heat shock protein HSP 90-alpha (Homo sapiens, UniProt P07900); assay type: functional, organism-based
[19] = tested on: CHO-K1; assay: (§1) Counterscreen for antagonists of the orexin 1 receptor (OX1R; HCRTR1): Homogeneous time resolved fluorescence (HTRF)-based cell-based dose response assay to identify antagonists of the parental CHO-K1 cell line. [Related pubchem assays (depositor defined):AID434989, AID435008, AID463079, AID485270, AID492963, AID492964, AID492965, AID493232, AID504699, AID504701]; assay type: functional; conditions: Cricetulus griseus
[20] = biological target: T5, Orexin/Hypocretin receptor type 1 (Homo sapiens, UniProt O43613); assay: (§2) Fluorescence-based cell-based high throughput dose response assay for antagonists of the orexin 1 receptor (OX1R; HCRTR1). [Related pubchem assays (depositor defined):AID434989, AID435008, AID463079, AID485270, AID492963, AID492964, AID492965, AID493232, AID504717, AID504718]; assay type: functional
T5 sequence (O43613 whole entry): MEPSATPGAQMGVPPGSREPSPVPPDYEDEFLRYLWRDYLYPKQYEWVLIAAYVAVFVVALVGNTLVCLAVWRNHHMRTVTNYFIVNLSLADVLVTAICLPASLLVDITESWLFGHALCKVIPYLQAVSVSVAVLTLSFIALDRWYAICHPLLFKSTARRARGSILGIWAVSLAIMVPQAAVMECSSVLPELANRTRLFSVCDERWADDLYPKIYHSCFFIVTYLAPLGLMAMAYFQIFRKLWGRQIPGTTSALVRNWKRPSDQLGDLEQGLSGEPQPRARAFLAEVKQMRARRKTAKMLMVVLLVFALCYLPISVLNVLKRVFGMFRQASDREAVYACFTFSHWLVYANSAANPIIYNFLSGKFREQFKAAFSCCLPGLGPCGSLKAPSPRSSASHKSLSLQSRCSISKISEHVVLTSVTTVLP

[21] = as §1, with “Fluorescence-based” for “Homogeneous time resolved fluorescence (HTRF)-based”, “cell-based high throughput” for “cell-based”, “CHO” for “CHO-K1”; assay type: functional
[22] = biological target: T5, Orexin/Hypocretin receptor type 1; assay: as §2, with “Homogeneous Time Resolved Fluorescence (HTRF)-based” for “Fluorescence-based”; assay type: functional
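Throughout, for CC50: cells exposed to compound for 72 hours before luminescence readout.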

Alkaline phosphatase, placental type, sequence (P05187 whole entry): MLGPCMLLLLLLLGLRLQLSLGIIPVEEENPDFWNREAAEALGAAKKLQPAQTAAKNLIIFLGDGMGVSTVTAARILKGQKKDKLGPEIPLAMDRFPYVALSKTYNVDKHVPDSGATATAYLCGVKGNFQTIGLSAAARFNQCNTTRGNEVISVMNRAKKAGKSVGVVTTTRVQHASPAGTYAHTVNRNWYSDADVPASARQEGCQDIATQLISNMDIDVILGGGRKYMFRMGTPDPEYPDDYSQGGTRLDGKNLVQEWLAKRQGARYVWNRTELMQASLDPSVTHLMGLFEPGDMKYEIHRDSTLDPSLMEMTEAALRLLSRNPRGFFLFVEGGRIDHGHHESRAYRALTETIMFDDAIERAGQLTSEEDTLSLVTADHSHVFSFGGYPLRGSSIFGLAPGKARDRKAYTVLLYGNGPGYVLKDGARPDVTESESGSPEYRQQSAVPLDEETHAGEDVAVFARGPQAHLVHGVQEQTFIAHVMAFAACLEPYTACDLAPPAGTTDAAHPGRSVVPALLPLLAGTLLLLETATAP
Glyceraldehyde-3-phosphate dehydrogenase, sequence (P04406 whole entry): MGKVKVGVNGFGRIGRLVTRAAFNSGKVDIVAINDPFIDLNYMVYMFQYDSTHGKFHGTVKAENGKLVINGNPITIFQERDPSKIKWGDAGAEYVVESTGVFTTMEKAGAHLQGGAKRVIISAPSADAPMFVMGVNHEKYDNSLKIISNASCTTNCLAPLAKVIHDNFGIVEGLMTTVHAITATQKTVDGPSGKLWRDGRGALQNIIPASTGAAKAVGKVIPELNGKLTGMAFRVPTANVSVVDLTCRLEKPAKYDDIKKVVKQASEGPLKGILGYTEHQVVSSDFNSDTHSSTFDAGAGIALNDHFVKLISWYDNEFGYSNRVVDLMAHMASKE

## O=[N+]([O-])c1ccc(-c2n[nH]c(-c3ccccc3)n2)cc1
[1]
  IC50: > 100 µM (not active)
[2]
  IC50: > 100 µM (inactive)
[3]
  IC50: > 100 µM (inactive)

## O=C(NC(N=C(S)Nc1ccc(Cl)cc1Cl)C(Cl)(Cl)Cl)c1cccc([N+](=O)[O-])c1 (stereo not given)
[4]
  AC50: 6.08 µM (active)
[5]
  EC50: 1.37 µM (active)
[6]
  CC50: 11 µM (active)
[7]
  EC50: 1.14 µM (active)
[8]
  EC50: 4.8 µM (active)
[9]
  EC50: 8.05 µM (active)

## O=C(c1ccc(Br)cc1)c1cc([N+](=O)[O-])ccc1N1CCOCC1
[10]
  EC50: 2.55 µM (active)
[11]
  IC50: 44.7 µM (active)
[12]
  IC50: > 80 µM (inactive)
[13]
  EC50: 2.91 µM (inconclusive)
[14]
  EC50: 7.48 µM (active)
[15]
  EC50: 14.8 µM (active)

## CC1(C)N=C(SCC(=O)Nc2ccc(Cl)cc2)C(c2ccc(Cl)cc2)=N1
[16]
  EC50: 4.7 µM (active)
[6]
  CC50: > 40 µM (active)
[17]
  AC50: 3.03 µM (active)
[18]
  AC50: 11.3 µM (active)

## CCOC(=O)C1=C(COC(=O)c2ccc3ccccc3c2O)NC(=O)NC1C (stereo not given)
[19]
  IC50: 33.6 µM (inactive)
[20]
  IC50: 2.35 µM (active)
[21]
  IC50: 37.2 µM (inactive)
[22]
  IC50: 1.62 µM (active)

## O=C(Cn1cnnn1)c1ccc(O)c(O)c1
[2]
  IC50: 16.4 µM (active)
[3]
  IC50: > 100 µM (inactive)
